Laboratory results: patent US12448394B2, “Heterocyclic pyrazole derivatives as type III receptor tyrosine kinase inhibitors” (DEVELOPMENT CENTER FOR BIOTECHNOLOGY, priority 2019, dated 2025)

Tests used:
[1] = test system: MV4-11 human acute myeloid leukemia cell with FLT3-ITD mutation; test: MV4-11 cell proliferation assay (CellTiter 96); format: cell-based; conditions: Homo sapiens, MV4-11, 72 h, MV4-11 cells, 72 hours treatment, CellTiter96; read-out: anti-proliferation activity MV4-11 (FLT3-ITD), IC50 ranking
Protocol: (§1) Inhibitions of cell growths by compounds were measured using CellTiter™-96 assay. The cytotoxicities of compounds of the invention were evaluated in cell line panels with different signaling pathway dependencies, including MV4-11 human acute myeloid leukemia cell with FLT3-ITD mutation, Molm-14 human acute myeloid leukemia cell with FLT3-ITD mutation, THP-1 human acute monocytic leukemia cell with NRAS G12D mutation, A375 melanoma cell with BRAF V600E mutation, and HCC827 NSCLC cell with EGFR exon 19 deletion mutation.
The compounds disclosed herein were tested in MV4-11 cell proliferation assay to determine their cellular potencies against FLT3 signal pathway dependent cell growths. MV4-11 cells are human acute myeloid leukemia (AML) cells harboring ligand-independent FLT3-ITD activating mutation, which renders the abnormal proliferation of AML cells FLT3 signaling pathway dependent. Inhibition of FLT3 kinase activity will result in reduced growths and/or cell deaths. MV4-11 cells (catalog #CRL-9591) were obtained from the American Type Culture Collection (ATCC, Manassas, VA). Briefly, cells were grown in IMDM medium supplemented with 10% heat inactivated fetal bovine serum and incubated at 37° C. in 5% CO2 atmosphere. Cells were allowed to expand until reaching saturation, at which point they were sub-cultured or harvested for assay use.
(§2) MV4-11, Molm-14, THP-1, A375, and HCC827 cells were seeded into 96-well plates at 6500, 25000, 5000, 2000 and 8000 cells/well, respectively, and incubated at 37° C., 5% CO2 overnight. Then, these seeded cells were treated with increasing concentrations of the test compounds and incubated for another 72 hours. At the end of the incubation, CellTiter96® AQueous One Solution Reagent (Promega, […]) was added and incubated for the additional 2˜4 hours. Cell viability was determined by measuring absorbance at 490 nm using EMax® microplate reader (Molecular Devices, San Jose, CA, USA).

[2] = test system: Molm-14 human acute myeloid leukemia cell with FLT3-ITD mutation; test: Molm-14 cell proliferation assay (CellTiter 96); format: cell-based; conditions: Homo sapiens; Molm-14 cells, 72 hours treatment, CellTiter96; read-out: anti-proliferation activity Molm-14 (FLT3-ITD), IC50 ranking
Protocol: as §1
The compounds disclosed herein were tested in Molm-14 cell proliferation assay to determine their cellular potencies against FLT3 signal pathway dependent cell growths. Molm-14 cells are human acute myeloid leukemia (AML) cells harboring ligand-independent FLT3-ITD activating mutation, which renders the abnormal proliferation of the AML cells FLT3 signaling pathway dependent. Inhibition of FLT3 kinase activity will result in reduced growths and/or cell deaths. […] Briefly, cells were grown in RPMI 1640 medium supplemented with 10% heat inactivated fetal bovine serum and incubated at 37° C. in 5% CO2 atmosphere. Cells were allowed to expand until reaching saturation, at which point they were sub-cultured or harvested for assay use.
as §2

[3] = test system: THP-1 human acute monocytic leukemia cell with NRAS G12D mutation; test: THP-1 cell proliferation assay (counter screen); format: cell-based; conditions: Homo sapiens, THP-1 cells, 72 hours treatment, CellTiter96, read-out: anti-proliferation activity THP-1 NRAS N12D, IC50 ranking
Protocol: as §1
THP-1 cells are human acute monocytic leukemia cells with NRAS G12D mutation, which renders the cell growth independent of class III RTKs signaling. THP-1 cells (catalog #TIB-202) were obtained from the ATCC. Briefly, cells were grown in RPMI 1640 medium supplemented with 10% heat inactivated fetal bovine serum and 0.05 mM 2-mercaptoethanol and incubated at 37° C. in 5% CO2 atmosphere. Cells were allowed to expand until reaching saturation, at which point they were sub-cultured or harvested for assay use.
as §2

[4] = test system: A375 melanoma cell with BRAF V600E mutation; test: A375 cell proliferation assay (counter screen); format: cell-based, human; conditions: Homo sapiens, A-375, A375 cells, 72 hours treatment, CellTiter96, read-out: anti-proliferation activity A375 BRAF V600E, IC50 ranking
Protocol: as §1
(§3) A375 cells are melanoma cells encoding BRFA V600E mutation, which renders the cell growth dependent on BRAF signaling instead of class III RTKs signaling. A375 cells (catalog #CRL-1619) were obtained from the ATCC. Briefly, cells were cultured in DMEM containing 10% FBS and incubated at 37° C. in 5% CO2 atmosphere. Cells were allowed to expand until reaching saturation, at which point they were sub-cultured or harvested for assay use.
as §2

[5] = test system: HCC827 NSCLC cell with EGFR exon 19 deletion mutation; test: HCC827 cell proliferation assay (counter screen); format: cell-based, human; conditions: Homo sapiens, HCC827 cells, 72 hours treatment, CellTiter96, read-out: anti-proliferation activity HCC827 EGFR Exon19 del, IC50 ranking
Protocol: as §1
as §3, with “HCC827” for “A375”, “non-small cell lung carcinoma (NSCLC)” for “melanoma”, “EGFR exon 19 deletion” for “BRFA V600E”, “EGFR” for “BRAF”, “#CRL-2868)” for “#CRL-1619)”, “RPMI1640 medium supplemented with” for “DMEM containing”
as §2

[6] = test system: phosphorylation of FLT3 and its down-stream effector STAT5; test: Western blotting of p-FLT3 and p-STAT5 in MV4-11 cells; format: cell-based; conditions: Homo sapiens; at 30 nM treatment, 3 hours, FLT3-ITD positive MV4-11 leukemia cells; read-out: inhibition activity against phosphorylation of FLT3 and its down-stream effector STAT5
Protocol: The potent compounds of formula (I) in EXAMPLE 2 were evaluated, by western blotting assay, for their cellular potencies against phosphorylation of FLT3 and its down-stream effector STAT5 in MV4-11 leukemia cell line with constitutive activation of FLT3 signaling. For western blotting experiments, MV4-11 cells were cultured in IMDM medium containing 0.1% FBS overnight. On the assay day, three million cells were treated with or without compounds for 3 hours in 15 mL tubes. Then, the whole cell lysates were harvested, following extraction by adding 2×SDS Sample Buffer and boiling on hot plate at 105° C. for 15 minutes. The resulting cell lysates were separated by SDS-PAGE electrophoresis and transferred to PVDF membrane. Protein expression was detected using immunoblot with corresponding primary antibody and secondary antibody following the standard procedures. Antibody against p-FLT3 (Tyr-591), anti-rabbit IgG HRP-linked secondary antibody, and anti-mouse IgG HRP-linked secondary antibody were purchased from Cell Signaling Technology. Antibody against p-STAT5 (Tyr-694) was purchased from BD biosciences. Antibody against actin was purchased from R&D system. […] Band intensities of western blot were also quantified by ChemiDoc™ MP Imaging System. Relative intensities of bandscorresponding to drug treatments at a single concentration (30 nM) were compared to the DMSO control group. The percentage (%) inhibition at each drug concentration was calculated using the formula: Percentage(%)inhibition=(1−Relative intensity)×100.

| SMILES | IC50 [1] | IC50 [2] | IC50 [3] | IC50 [4] | IC50 [5] | inhibition at 0.03 µM [6] |
| --- | --- | --- | --- | --- | --- | --- |
| C[C@@H]1CN(C(=O)c2ccc(-c3cc4c(s3)Cc3c(-c5ccc6cnn(C)c6c5)n[nH]c3-4)cc2)C[C@H](C)O1 [Compound 19, ((2S,6R)-2,6-dimethyl-morpholino)(4-(3-(1-methyl-1H-indazol-6-yl)-1,4-dihydrothieno[2′,3′:4,5]cyclopenta[1,2-c]pyrazol-6-yl)phenyl)methanone] | < 0.03 µM | < 0.03 µM | > 10 µM | > 10 µM | > 10 µM | > 50% |
| CC(c1ccc(-c2cc3c(s2)Cc2c(-c4ccc5cnn(C)c5c4)n[nH]c2-3)cc1)N1CCOCC1 (stereo not drawn) [Compound 20, 4-(1-(4-(3-(1-methyl-1H-indazol-6-yl)-1,4-dihydro-thieno[2′,3′:4,5]cyclopenta [1,2-c]pyrazol-6-yl)phenyl)ethyl)morpholine] | < 0.03 µM | 0.03 to 0.1 µM | > 10 µM | > 10 µM | > 10 µM | > 50% |
| Cn1ncc2ccc(-c3n[nH]c4c3Cc3sc(-c5cccc(CN6CCOCC6)c5)cc3-4)cc21 [Compound 13, 4-(3-(3-(1-methyl-1H-indazol-6-yl)-1,4-dihydro-thieno[2′,3′:4,5]cyclopenta [1,2-c]pyrazol-6-yl)benzyl) morpholine] | 0.03 to 0.1 µM | 0.03 to 0.1 µM | > 10 µM | > 10 µM | > 10 µM | > 50% |
| CN1CCN(C(=O)c2ccc(-c3cc4c(s3)Cc3c(-c5ccc6cnn(C)c6c5)n[nH]c3-4)cc2)CC1 [Compound 15, (4-(3-(1-methyl-1H-indazol-6-yl)-1,4-dihydrothieno[2′,3′:4,5]cyclopenta[1,2-c]pyrazol-6-yl)phenyl)(4-methyl-piperazin-1-yl)methanone] | < 0.03 µM | < 0.03 µM | > 10 µM | > 10 µM | > 10 µM | > 50% |
| c1cc(CN2CCOCC2)ncc1-c1cc2c(s1)Cc1c(-c3ccc4cn[nH]c4c3)n[nH]c1-2 [Compound 18, 4-((5-(3-(1H-indazol-6-yl)-1,4-dihydrothieno[2′,3′:4,5]cyclopenta[1,2-c]pyrazol-6-yl)pyridin-2-yl)methyl) morpholine] | < 0.03 µM | < 0.03 µM | > 10 µM | > 10 µM | > 10 µM | > 50% |

Now from value to compound, other results behind:

| IC50 [1] | IC50 [2] | SMILES | IC50 [3] | IC50 [4] | IC50 [5] | inhibition at 0.03 µM [6] |
| --- | --- | --- | --- | --- | --- | --- |
| < 0.03 µM | 0.03 to 0.1 µM | CN(C)S(=O)(=O)c1ccc(-c2cc3c(s2)Cc2c(-c4ccc5cnn(C)c5c4)n[nH]c2-3)cc1 [Compound 50, N,N-dimethyl-4-(3-(1-methyl-1H-indazol-6-yl)-1,4-dihydrothieno [2′,3′:4,5]cyclopenta [1,2-c]pyrazol-6-yl) benzenesulfonamide] | > 10 µM | > 10 µM | > 10 µM | > 50% |
| < 0.03 µM | < 0.03 µM | Cn1ncc2ccc(-c3n[nH]c4c3Cc3sc(-c5ccc(CN6CCCC6)cc5)cc3-4)cc21 [Compound 99, 3-(1-methyl-1H-indazol-6-yl)-6-(4-(pyrrolidin-1-ylmethyl)phenyl)-1,4-dihydrothieno[2′,3′:4,5] cyclopenta[1,2-c]pyrazole] | 1 to 10 µM | > 10 µM | > 10 µM | > 50% |
| < 0.03 µM | < 0.03 µM | Cn1ncc2ccc(-c3n[nH]c4c3Cc3sc(-c5csc(C(=O)N6CCOCC6)c5)cc3-4)cc21 [Compound 48, (4-(3-(1-methyl-1H-indazol-6-yl)-1,4-dihydro-thieno[2′,3′:4,5]cyclopenta [1,2-c]pyrazol-6-yl)thiophen-2-yl) (morpholino)methanone] | > 10 µM | > 10 µM | > 10 µM | > 50% |
| < 0.03 µM | < 0.03 µM | Cn1ncc2ccc(-c3n[nH]c4c3Cc3sc(-c5ccc(CN6CCCCC6)cc5)cc3-4)cc21 [Compound 100, 3-(1-methyl-1H-indazol-6-yl)-6-(4-(piperidin-1-ylmethyl)phenyl)-1,4-dihydrothieno[2′,3′:4,5] cyclopenta[1,2-c]pyrazole] | 1 to 10 µM | > 10 µM | > 10 µM | > 50% |
| < 0.03 µM | < 0.03 µM | Cn1ncc2ccc(-c3n[nH]c4c3Cc3sc(C5=CCN(C(=O)N6CCOCC6)CC5)cc3-4)cc21 [Compound 57, (4-(3-(1-methyl-1H-indazol-6-yl)-1,4-dihydro-thieno[2′,3′:4,5]cyclopenta [1,2-c]pyrazol-6-yl)-3,6-dihydropyridin-1(2H)-yl) (morpholino)methanone] | > 10 µM | > 10 µM | > 10 µM | > 50% |
| < 0.03 µM | 0.03 to 0.1 µM | C[C@@H]1CN(Cc2ccc(-c3cc4c(s3)Cc3c(-c5ccc6cnn(C)c6c5)n[nH]c3-4)cc2)C[C@H](C)O1 [Compound 54, (2S,6R)-2,6-dimethyl-4-(4-(3-(1-methyl-1H-indazol-6-yl)-1,4-dihydro-thieno[2′,3′:4,5]cyclopenta [1,2-c]pyrazol-6-yl)benzyl)morpholine] | > 10 µM | > 10 µM | > 10 µM | > 50% |
